For assay [1], the target named is Histamine H3 receptor (Rattus norvegicus, UniProt Q9QYN8). Kind of assay: Binding affinity for rat histamine H3 receptor on rat cortical cells.
Assay [2] concerns the target Histamine H3 receptor (Homo sapiens, UniProt Q9Y5N1). The assay is described as follows: Binding affinity for human histamine H3 receptor on human colon cells. Format: cell-based.

In general, Ki refers to a dissociation constant, usually derived from enzyme kinetics or from competition with a known ligand. High values mean lower affinity, low ones higher affinity.

Chain of Histamine H3 receptor (Homo sapiens, UniProt Q9Y5N1) (Q9Y5N1 whole entry): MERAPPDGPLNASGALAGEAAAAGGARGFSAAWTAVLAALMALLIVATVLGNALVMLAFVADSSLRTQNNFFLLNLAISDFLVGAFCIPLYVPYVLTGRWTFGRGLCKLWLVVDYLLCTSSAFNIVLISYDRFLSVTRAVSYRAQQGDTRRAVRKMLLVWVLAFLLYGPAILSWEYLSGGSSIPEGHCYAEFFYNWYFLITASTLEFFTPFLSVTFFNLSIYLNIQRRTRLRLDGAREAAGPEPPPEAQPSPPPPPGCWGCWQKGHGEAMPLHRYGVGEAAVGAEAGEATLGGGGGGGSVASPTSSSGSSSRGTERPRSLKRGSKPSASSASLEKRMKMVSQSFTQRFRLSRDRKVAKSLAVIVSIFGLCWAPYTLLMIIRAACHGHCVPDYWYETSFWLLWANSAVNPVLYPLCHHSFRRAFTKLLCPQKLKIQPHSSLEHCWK
Chain of Histamine H3 receptor (Rattus norvegicus, UniProt Q9QYN8) (Q9QYN8 whole entry): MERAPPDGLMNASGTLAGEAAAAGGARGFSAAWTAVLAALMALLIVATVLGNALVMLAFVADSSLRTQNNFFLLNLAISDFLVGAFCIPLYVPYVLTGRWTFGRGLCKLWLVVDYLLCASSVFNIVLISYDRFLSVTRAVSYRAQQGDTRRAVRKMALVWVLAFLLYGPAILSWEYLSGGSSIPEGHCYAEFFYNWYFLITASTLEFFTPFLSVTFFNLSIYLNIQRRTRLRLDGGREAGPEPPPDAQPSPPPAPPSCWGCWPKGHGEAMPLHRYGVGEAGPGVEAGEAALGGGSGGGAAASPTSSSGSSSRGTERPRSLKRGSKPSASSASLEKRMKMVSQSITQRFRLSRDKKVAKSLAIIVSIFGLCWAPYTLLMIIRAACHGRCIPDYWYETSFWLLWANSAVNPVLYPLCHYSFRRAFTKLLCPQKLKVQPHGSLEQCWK

On to `CC(C)CC(=O)N[C@H](C)C(=O)N1CCCN(CCCOc2ccc(-c3noc(CC4CCCC4)n3)c(F)c2)CC1`, for which the Ki came out at 1.1 nM on Histamine H3 receptor [1] and 13 nM at Histamine H3 receptor [2].

Take `C[C@@H](NC(=O)c1ccco1)C(=O)N1CCCN(CCCOc2ccc(-c3noc(-c4ccoc4)n3)c(F)c2)CC1`: the results for the inhibition constant (Ki) at Histamine H3 receptor [1] and on Histamine H3 receptor [2] were 1.7 nM and 85 nM, respectively.

On to `C[C@@H](NC(=O)c1ccco1)C(=O)N1CCN(CCCOc2ccc(C(=O)C3CC3)c(F)c2)CC1`, for which the Ki at Histamine H3 receptor [1] was found to be 1.3 nM; on Histamine H3 receptor [2] it was 43 nM.

Turning to `C[C@@H](NC(=O)c1ccc(Br)cc1)C(=O)N1CCN(CCCOc2ccc(-c3noc(CC4CCCC4)n3)c(F)c2)CC1`, the Ki on Histamine H3 receptor [1] turned out to be 6.2 nM; on Histamine H3 receptor [2] it was 18 nM.

As for `C[C@@H](NC(=O)[C@H]1CCCO1)C(=O)N1CCN(CCCOc2ccc(-c3noc(-c4ccccc4)n3)c(F)c2)CC1`, the results for the Ki at Histamine H3 receptor [1] and at Histamine H3 receptor [2] were 4.2 nM and 92 nM, respectively.

As to `CC(C)CCC(=O)N[C@H](C)C(=O)N1CCN(CCCOc2ccc(-c3noc(CC4CCCC4)n3)c(F)c2)CC1`, the Ki is 6.1 nM at Histamine H3 receptor [1] and 98 nM at Histamine H3 receptor [2].

Regarding `C[C@@H](N)C(=O)N1CCN(CCCOc2ccc(-c3noc(C4CC4)n3)c(F)c2)CC1`, the figures for the inhibition constant Ki on Histamine H3 receptor [1] and on Histamine H3 receptor [2] were 3.1 nM and 560 nM, respectively.

As for `C[C@@H](NC(=O)c1ccco1)C(=O)N1CCCN(CCCOc2ccc(-c3noc(-c4ccncc4)n3)c(F)c2)CC1`, the Ki on Histamine H3 receptor [1] turned out to be 11 nM; on Histamine H3 receptor [2], 520 nM.

Turning to `C[C@@H](NC(=O)c1ccco1)C(=O)N1CCCN(CCCOc2ccc(-c3noc(C4CCCCCC4)n3)c(F)c2)CC1`, the Ki at Histamine H3 receptor [1] worked out at 3.3 nM; on Histamine H3 receptor [2], 15 nM.

In the case of `C[C@@H](NC(=O)C1CCCCC1)C(=O)N1CCN(CCCOc2ccc(-c3noc(-c4ccccc4)n3)c(F)c2)CC1`, the inhibitory constant (Ki) worked out at 6.9 nM at Histamine H3 receptor [1] and 49 nM at Histamine H3 receptor [2].

For the compound `CC(C)CC(=O)N[C@H](C)C(=O)N1CCN(CCCOc2ccc(-c3noc(CC4CCCC4)n3)c(F)c2)CC1`, the Ki on Histamine H3 receptor [1] came to 5 nM; at Histamine H3 receptor [2], 110 nM.

Regarding `C[C@@H](NC(=O)c1cccc(N(C)C)c1)C(=O)N1CCN(CCCOc2ccc(-c3noc(CC4CCCC4)n3)c(F)c2)CC1`, the Ki on Histamine H3 receptor [1] worked out at 2.6 nM; on Histamine H3 receptor [2] it was 47 nM.

Consider `Cc1ccccc1C(=O)N[C@H](C)C(=O)N1CCN(CCCOc2ccc(-c3noc(CC4CCCC4)n3)c(F)c2)CC1`, for which the inhibition constant Ki on Histamine H3 receptor [1] worked out at 2.4 nM; on Histamine H3 receptor [2] it was 13 nM.

For the compound `C[C@@H](NC(=O)CC(C)(C)C)C(=O)N1CCCN(CCCOc2ccc(-c3noc(CC4CCCC4)n3)c(F)c2)CC1`, the Ki on Histamine H3 receptor [1] was 4.9 nM; at Histamine H3 receptor [2] it was 74 nM.

As to `C[C@H](NC(=O)OC(C)(C)C)c1nc(-c2ccc(OCCCN3CCCN(C(=O)[C@@H](C)NC(=O)c4ccco4)CC3)cc2F)no1`, the inhibitory constant (Ki) stood at 8.2 nM on Histamine H3 receptor [1] and 140 nM on Histamine H3 receptor [2].

Consider `C[C@@H](NC(=O)c1ccco1)C(=O)N1CCCN(CCCOc2ccc(-c3noc(CCc4ccccc4)n3)c(F)c2)CC1`, for which the Ki came to 0.94 nM at Histamine H3 receptor [1] and 7.5 nM at Histamine H3 receptor [2].

For the compound `CCC(=O)N[C@H](C)C(=O)N1CCN(CCCOc2ccc(-c3noc(CC4CCCC4)n3)c(F)c2)CC1`, the Ki was found to be 7.2 nM at Histamine H3 receptor [1] and 170 nM on Histamine H3 receptor [2].

With `CC(C)C(=O)N[C@H](C)C(=O)N1CCCN(CCCOc2ccc(-c3noc(CC4CCCC4)n3)c(F)c2)CC1`, the Ki amounted to 1.3 nM on Histamine H3 receptor [1] and 14 nM on Histamine H3 receptor [2].

Regarding `C[C@@H](NC(=O)c1ccc(Cl)c(Cl)c1)C(=O)N1CCN(CCCOc2ccc(-c3noc(CC4CCCC4)n3)c(F)c2)CC1`, the inhibition constant (Ki) on Histamine H3 receptor [1] is 1.8 nM; on Histamine H3 receptor [2] it was 15 nM.

On to `C[C@@H](NC(=O)CC1CCCC1)C(=O)N1CCN(CCCOc2ccc(-c3noc(-c4ccccc4)n3)c(F)c2)CC1`, for which the Ki on Histamine H3 receptor [1] was 21 nM; at Histamine H3 receptor [2] it was 130 nM.

As for `COc1cccc(C(=O)N[C@H](C)C(=O)N2CCN(CCCOc3ccc(-c4noc(CC5CCCC5)n4)c(F)c3)CC2)c1`, the Ki at Histamine H3 receptor [1] is 3.6 nM; at Histamine H3 receptor [2], 34 nM.

In the case of `C[C@@H](NC(=O)c1cccc(Cl)c1)C(=O)N1CCN(CCCOc2ccc(-c3noc(CC4CCCC4)n3)c(F)c2)CC1`, the figures for the inhibition constant (Ki) on Histamine H3 receptor [1] and at Histamine H3 receptor [2] were 6.7 nM and 36 nM, respectively.

With `C[C@@H](NC(=O)c1ccco1)C(=O)N1CCCN(CCCOc2ccc(-c3noc(-c4cccs4)n3)c(F)c2)CC1`, the Ki worked out at 6.2 nM on Histamine H3 receptor [1] and 160 nM on Histamine H3 receptor [2].

As for `C[C@@H](NC(=O)C1CCCC1)C(=O)N1CCN(CCCOc2ccc(-c3noc(-c4ccccc4)n3)c(F)c2)CC1`, the results for the Ki on Histamine H3 receptor [1] and on Histamine H3 receptor [2] were 7 nM and 70 nM, respectively.

As for `C[C@@H](NC(=O)C(C)(C)C)C(=O)N1CCN(CCCOc2ccc(-c3noc(CC4CCCC4)n3)c(F)c2)CC1`, the results for the Ki on Histamine H3 receptor [1] and at Histamine H3 receptor [2] were 7 nM and 130 nM, respectively.

On to `C[C@@H](NC(=O)c1ccc(C#N)cc1)C(=O)N1CCN(CCCOc2ccc(-c3noc(-c4ccccc4)n3)c(F)c2)CC1`, for which the inhibitory constant (Ki) on Histamine H3 receptor [1] was determined as 2.6 nM; on Histamine H3 receptor [2], 20 nM.

Turning to `C[C@@H](NC(=O)c1ccco1)C(=O)N1CCCN(CCCOc2ccc(-c3noc(CC(C)(C)C)n3)c(F)c2)CC1`, the Ki is 2.4 nM on Histamine H3 receptor [1] and 40 nM on Histamine H3 receptor [2].

With `CC(C)CCC(=O)N[C@H](C)C(=O)N1CCCN(CCCOc2ccc(-c3noc(CC4CCCC4)n3)c(F)c2)CC1`, the Ki at Histamine H3 receptor [1] worked out at 2.8 nM; at Histamine H3 receptor [2], 23 nM.

On to `C[C@@H](NC(=O)c1ccsc1)C(=O)N1CCN(CCCOc2ccc(-c3noc(-c4ccccc4)n3)c(F)c2)CC1`, for which the inhibition constant (Ki) at Histamine H3 receptor [1] came to 4.2 nM; at Histamine H3 receptor [2], 28 nM.

Turning to `C[C@@H](NC(=O)CC(C)(C)C)C(=O)N1CCN(CCCOc2ccc(-c3noc(CC4CCCC4)n3)c(F)c2)CC1`, the results for the Ki on Histamine H3 receptor [1] and at Histamine H3 receptor [2] were 6.4 nM and 100 nM, respectively.

Turning to `CC(C)CCc1nc(-c2ccc(OCCCN3CCCN(C(=O)[C@@H](C)NC(=O)c4ccco4)CC3)cc2F)no1`, the inhibition constant Ki at Histamine H3 receptor [1] is 0.56 nM; at Histamine H3 receptor [2] it was 8.6 nM.

As to `CC(C)CCC(=O)N[C@H](C)C(=O)N1CCN(CCCOc2ccc(-c3noc(-c4ccccc4)n3)c(F)c2)CC1`, the Ki on Histamine H3 receptor [1] turned out to be 14 nM; on Histamine H3 receptor [2] it was 68 nM.

For `C[C@@H](NC(=O)c1cnccn1)C(=O)N1CCN(CCCOc2ccc(-c3noc(-c4ccccc4)n3)c(F)c2)CC1`, the inhibition constant (Ki) on Histamine H3 receptor [1] came out at 1.7 nM; at Histamine H3 receptor [2], 29 nM.

Turning to `C[C@@H](NC(=O)c1cccnc1)C(=O)N1CCN(CCCOc2ccc(-c3noc(CC4CCCC4)n3)c(F)c2)CC1`, the Ki at Histamine H3 receptor [1] was found to be 1.7 nM; at Histamine H3 receptor [2], 20 nM.

Consider `CC(C)Cc1nc(-c2ccc(OCCCN3CCCN(C(=O)[C@@H](C)NC(=O)c4ccco4)CC3)cc2F)no1`, for which the inhibition constant (Ki) at Histamine H3 receptor [1] was 1.7 nM; at Histamine H3 receptor [2], 33 nM.

On to `COc1ccc(C(=O)N[C@H](C)C(=O)N2CCN(CCCOc3ccc(-c4noc(CC5CCCC5)n4)c(F)c3)CC2)cc1OC`, for which the Ki came to 2.5 nM on Histamine H3 receptor [1] and 24 nM at Histamine H3 receptor [2].

On to `C[C@@H](NC(=O)c1ccco1)C(=O)N1CCCN(CCCOc2ccc(-c3noc([C@@H](C)NC(=O)OC(C)(C)C)n3)c(F)c2)CC1`, for which the inhibition constant (Ki) on Histamine H3 receptor [1] came to 28 nM; on Histamine H3 receptor [2], 520 nM.

Consider `C[C@@H](NC(=O)c1ccc(Cl)c(Cl)c1)C(=O)N1CCCN(CCCOc2ccc(-c3noc(CC4CCCC4)n3)c(F)c2)CC1`, for which the figures for the Ki on Histamine H3 receptor [1] and at Histamine H3 receptor [2] were 31 nM and 140 nM, respectively.

Regarding `CC(C)C(=O)N[C@H](C)C(=O)N1CCN(CCCOc2ccc(-c3noc(-c4ccccc4)n3)c(F)c2)CC1`, the Ki on Histamine H3 receptor [1] stood at 14 nM; on Histamine H3 receptor [2], 110 nM.

Turning to `C[C@@H](NC(=O)c1ccc(F)cc1)C(=O)N1CCCN(CCCOc2ccc(-c3noc(CC4CCCC4)n3)c(F)c2)CC1`, the Ki was 1.2 nM at Histamine H3 receptor [1] and 14 nM at Histamine H3 receptor [2].

Values taken from ChEMBL document CHEMBL1147425, “Structure-activity relationships of non-imidazole H(3) receptor ligands. Part 3: 5-Substituted 3-phenyl-1,2,4-oxadiazoles as potent antagonists” (Bioorg Med Chem Lett, 2004).
